Values of other authors as cited in patent US12442091B2, “Electrochemical dehydrogenation, epoxidation, substitution, and halogenation of hydrocarbons and hydrocarbon derivatives” (Wisconsin Alumni Research Foundation, priority 2020, dated 2025).
In brackets after ≈: the same amount, converted by molar mass.

Row | SMILES | solubility in water [µg/mL]
1 | CC(C)Br [2-bromopropane] | 3200 (≈ 26 mM)
2 | C=CC [propene] | 384 (≈ 9.13 mM)
